Laboratory results as given in US7605272B2, “IGF-1R inhibitor” (Kyowa Hakko Kirin Co., Ltd., priority 2005, dated 2009).
Counter-ions that a name gives are not always drawn.

How the values were obtained:
NCI-H929 = assay: Cytostatic activity on human multiple myeloma cell line NCI-H929 (WST-1); type: cell-based; details: Homo sapiens, NCI-H929, 72 h, 72 hours; for inhibition at 10 µM: 10 μmol/L, read-out: cytostatic rate (%) H929 (10 μmol/L); for inhibition at 1 µM: 1 μmol/L, read-out: cytostatic rate (%) H929 (1 μmol/L)
How it was run: (§1)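 Cells pre-cultured 24 h at 37 °C, 5% CO2, then exposed 72 h to compound at final 1 or 10 μmol/L (0.1% DMSO). WST-1 added for 2 h, absorbance at 450 nm (ref 690 nm). Cytostatic rate = 100 minus relative growth, with DMSO control as 100% and blank as 0%.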

IGF-1R = target: T1, IGF-1R (Homo sapiens, UniProt P08069); assay: IGF-1R inhibitory activity (kinase reaction, time-resolved fluoroimmunoassay); type: biochemical; details: test compound 10 μmol/L
T1 construct: purchased Upstate Co. 14-465
How it was run: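 Compounds were tested at a single 10 μmol/L concentration. Each was incubated with recombinant IGF-1R (200 μg/L), 10 mmol/L ATP, MgCl2/MnCl2 and Na3VO4 (pH 7.5) on immobilized poly(Glu-Tyr) peptide for 30 min at 24° C. Eu-anti-phosphotyrosine time-resolved fluorescence (340/615 nm) gave relative activity against no-compound and no-enzyme wells, reported as % inhibition.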

KMS-11 = assay: Cytostatic activity on human multiple myeloma cell line KMS-11 (WST-1); type: cell-based; details: Homo sapiens, KMS-11, 72 h, 72 hours; for inhibition at 10 µM: 10 μmol/L, read-out: cytostatic rate (%) KMS-11 (10 μmol/L); for inhibition at 1 µM: 1 μmol/L, read-out: cytostatic rate (%) KMS-11 (1 μmol/L)
How it was run: as §1

[1] = IGF-1R active recombinant enzyme

T1 sequence (P08069 959-1367 limits assumed): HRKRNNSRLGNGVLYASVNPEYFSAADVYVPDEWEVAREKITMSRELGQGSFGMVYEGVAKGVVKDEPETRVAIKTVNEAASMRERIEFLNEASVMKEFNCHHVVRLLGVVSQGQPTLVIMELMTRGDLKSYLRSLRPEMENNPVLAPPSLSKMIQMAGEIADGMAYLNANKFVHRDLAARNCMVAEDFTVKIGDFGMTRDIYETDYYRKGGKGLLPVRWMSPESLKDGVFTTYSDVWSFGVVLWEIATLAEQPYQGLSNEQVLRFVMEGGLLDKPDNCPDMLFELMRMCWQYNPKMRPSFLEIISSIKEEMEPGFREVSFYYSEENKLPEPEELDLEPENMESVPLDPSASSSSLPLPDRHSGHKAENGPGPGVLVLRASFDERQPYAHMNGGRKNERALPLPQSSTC

SMILES	inhibition at 10 µM (NCI-H929) [%]	inhibition at 10 µM (IGF-1R) [%]	inhibition at 10 µM (KMS-11) [%]	inhibition at 10 µM (IGF-1R; [1]) [%]	inhibition at 1 µM (NCI-H929) [%]	inhibition at 1 µM (KMS-11) [%]
COC1CCN(C(=O)c2ccc(/C=C/c3n[nH]c4ccccc34)c(NC(=O)c3sccc3C)c2)CC1 [Compound 120, (E)-N-{2-[2-(1H-indazol-3-yl)vinyl]-5-(4-methoxypiperidin-1-ylcarbonyl)phenyl}-3-methylthiophene-2-carboxamide]	116	97.5	114	–	–	–
Nc1ccc(C(=O)Nc2cc3c(cc2/C=C/c2n[nH]c4ccccc24)OCO3)s1 [Compound 132, (E)-5-amino-N-{6-[2-(1H-indazol-3-yl)vinyl]benzo[1,3]dioxol-5-yl}thiophene-2-carboxamide]	108	98	112	–	–	–
OCCOc1ccccc1/C=C/c1n[nH]c2ccccc12 [Compound 134, (E)-2-{2-[2-(1H-indazol-3-yl)vinyl]phenoxy}ethanol]	92.8	–	52.5	93.4	–	–
N#Cc1ccccc1/C=C/c1n[nH]c2ccccc12 [Compound 136, (E)-2-[2-(1H-indazol-3-yl)vinyl]benzonitrile]	87.7	–	38.4	85.3	–	–
C(=C\c1n[nH]c2ccccc12)/c1ccccc1N1CCOCC1 [Compound 137, (E)-3-[2-{2-(morpholin-4-yl)phenyl]vinyl}-1H-indazole]	114	–	51.2	94.3	–	–
O=C(Nc1nccs1)c1ccccc1/C=C/c1n[nH]c2ccccc12 [Compound 138, (E)-2-[2-(1H-indazol-3-yl)vinyl]-N-(thiazol-2-yl)benzamide]	114	–	101	97.2	–	–
C(=C\c1n[nH]c2ccccc12)/c1ccccc1OCCc1ccccc1 [Compound 140, (E)-3-{2-[2-(2-phenylethyloxy)phenyl]vinyl}-1H-indazole]	104	–	58.9	92.1	–	–
O=C(NCc1cccs1)c1ccccc1/C=C/c1n[nH]c2ccccc12 [Compound 141, (E)-2-[2-(1H-indazol-3-yl)vinyl]-N-(thiophen-2-ylmethyl)benzamide]	114	–	117	97.1	–	–
O=C(Nc1cccnc1)c1ccccc1/C=C/c1n[nH]c2ccccc12 [Compound 142, (E)-2-[2-(1H-indazol-3-yl)vinyl]-N-(pyridin-3-yl)benzamide]	104	–	84.9	92.8	–	–
O=C(Nc1nncs1)c1ccccc1/C=C/c1n[nH]c2ccccc12 [Compound 145, (E)-2-[2-(1H-indazol-3-yl)vinyl]-N-([1,3,4]thiadiazol-2-yl)benzamide]	126	–	116	93.4	–	–
O=C1c2ccccc2C(=O)N1c1cc2c(cc1/C=C/c1n[nH]c3ccccc13)OCO2 [Compound 151, (E)-N-2-{6-[2-(1H-indazol-3-yl)vinyl]benzo[1,3]dioxol-5-yl}isoindole-1,3-dione]	104	–	83.2	100	–	–
Cc1cc(C(=O)Nc2ccccc2/C=C/c2n[nH]c3ccccc23)ccc1N [Compound 158, (E)-4-amino-N-{2-[2-(1H-indazol-3-yl)vinyl]phenyl}-3-methylbenzamide]	113	–	108	99.5	–	–
O=C1c2ccccc2C(=O)N1c1ccccc1/C=C/c1n[nH]c2ccccc12 [Compound 159, (E)-2-{2-[2-(1H-indazol-3-yl)vinyl]phenyl}isoindole-1,3-dione]	104	–	75.5	99.9	–	–
NC(=S)Nc1ccccc1/C=C/c1n[nH]c2ccccc12 [Compound 161, (E)-N-{2-[2-(1H-indazol-3-yl)vinyl]phenyl}thiourea]	113	–	92.8	95.9	–	–
Cc1ncsc1C(=O)Nc1ccccc1/C=C/c1n[nH]c2ccccc12 [Compound 174, (E)-N-{2-[2-(1H-indazol-3-yl)vinyl]phenyl}-4-methylthiazole-5-carboxamide]	109	–	82.6	103	–	–
Nc1ccc2c(c1)C(=O)N(c1ccccc1/C=C/c1n[nH]c3ccccc13)C2=O [Compound 193, (E)-5-amino-2-{2-[2-(1H-indazol-3-yl)vinyl]phenyl}isoindole-1,3-dione]	124	–	167	100	–	–
COC(=O)c1c[nH]c(-c2ccccc2/C=C/c2n[nH]c3ccccc23)n1 [Compound 195, (E)-2-{2-[2-(1H-indazol-3-yl)vinyl]phenyl}-3H-imidazole-4-carboxylic acid methyl ester]	111	–	97.7	100	–	–
O=C1c2ccccc2CN1c1ccccc1/C=C/c1n[nH]c2ccccc12 [Compound 213, (E)-2-{2-[2-(1H-indazol-3-yl)vinyl]phenyl}-2,3-dihydroisoindole-1-one]	127	–	121	99	–	–
Nc1cccc2c1CN(c1ccccc1/C=C/c1n[nH]c3ccccc13)C2=O [Compound 216, (E)-4-amino-2-{2-[2-(1H-indazol-3-yl)vinyl]phenyl}-2,3-dihydroisoindole-1-one]	109	–	90.9	96.5	–	–
Cc1ccsc1C(=O)Nc1cc(C(=O)N2CCN(C=O)CC2)ccc1/C=C/c1n[nH]c2ccccc12 [Compound 218, (E)-N-{2-[2-(1H-indazol-3-yl)vinyl]-5-(4-formylpiperazin-1-ylcarbonyl)phenyl}-3-methylthiophene-2-carboxamide hydrochloride]	–	–	–	98.6	112	106
Cc1ccsc1C(=O)Nc1cc(C(=O)N2CCC(O)CC2)ccc1/C=C/c1n[nH]c2ccccc12 [Compound 219, (E)-N-{2-[2-(1H-indazol-3-yl)vinyl]-5-(4-hydroxypiperidin-1-ylcarbonyl)phenyl}-3-methylthiophene-2-carboxamide hydrochloride]	–	–	–	99.4	111	108
Cc1ccsc1C(=O)Nc1cc(C(=O)N2CC[C@@H](O)C2)ccc1/C=C/c1n[nH]c2ccccc12 [Compound 220, (E)-(R)—N-{2-[2-(1H-indazol-3-yl)vinyl]-5-(3-hydroxypyrrolidin-1-ylcarbonyl)phenyl}-3-methylthiophene-2-carboxamide hydrochloride]	–	–	–	99.3	110	97.9
Cc1ccsc1C(=O)Nc1cc(C(=O)N2C[C@@H](C)O[C@@H](C)C2)ccc1/C=C/c1n[nH]c2ccccc12 [Compound 223, (E)-N-{2-[2-(1H-indazol-3-yl)vinyl]-5-(cis-2,6-dimethylmorpholin-4-ylcarbonyl)phenyl}-3-methylthiophene-2-carboxamide hydrochloride]	–	–	–	101	119	120
Cc1ccsc1C(=O)Nc1cc(CN2CCOCC2)ccc1/C=C/c1n[nH]c2ccccc12 [Compound 224, (E)-N-{2-[2-(1H-indazol-3-yl)vinyl]-5-(morpholin-4-ylmethyl)phenyl}-3-methylthiophene-2-carboxamide hydrochloride]	–	–	–	100	119	119
Cc1ccsc1C(=O)Nc1ccc(N2CCC(S(C)(=O)=O)CC2)cc1/C=C/c1n[nH]c2ccccc12 [Compound 227, (E)-N-{2-[2-(1H-indazol-3-yl)vinyl]-4-(4-methanesulfonylpiperidin-1-yl)phenyl}-3-methylthiophene-2-carboxamide hydrochloride]	–	–	–	98.9	113	52.9
Cc1ccsc1C(=O)Nc1ccc(N2CCN(C)CC2)cc1/C=C/c1n[nH]c2ccccc12 [Compound 228, (E)-N-{2-[2-(1H-indazol-3-yl)vinyl]-4-(4-methylpiperazin-1-yl)phenyl}-3-methylthiophene-2-carboxamide]	–	–	–	100	114	58
Cc1ccsc1C(=O)Nc1cc(C(=O)NCCN(C)C)ccc1/C=C/c1n[nH]c2ccccc12 [Compound 229, (E)-N-{5-[2-(dimethylamino)ethylcarbamoyl]-2-[2-(1H-indazol-3-yl)vinyl]phenyl}-3-methylthiophene-2-carboxamide hydrochloride]	–	–	–	99.3	121	66.8
CCN(CC)CCNC(=O)c1ccc(/C=C/c2n[nH]c3ccccc23)c(NC(=O)c2sccc2C)c1 [Compound 230, (E)-N-{5-(2-diethylaminoethylcarbamoyl)-2-[2-(1H-indazol-3-yl)vinyl]phenyl}-3-methylthiophene-2-carboxamide hydrochloride]	–	–	–	98.9	124	93.8
